Reference: US9409900B2, “Compound for increasing kinase active and application thereof” (FUJIAN HAIXI PHARMACEUTICALS, INC., priority 2010, dated 2016)

Molecular target: glucokinase (Homo sapiens (Human), UniProt P35557)
Assay: Glucokinase Activation Assay
Assay type: biochemical
Conditions: 5 mM glucose, 100 nM glucokinase, G6PDH-coupled, absorbance at 340 nm, pH 7.1
Method: The final assay volume was 200 uL and the final buffer conditions used in this assay were as follows: 25 mM HEPES, 5 mM glucose, 1 mM ATP, 2 mM MgCl2, 1 mM NAD, 1 mM DTT, 8.5 U/mL G6PDH, 100 nM glucokinase, and 25 mM KCl. The buffer pH was 7.1. The mixture A was first made containing KCl, MgCl2, DTT and Glucose in HEPES buffer. The mixture B was made containing NAD and ATP. The test compound in DMSO solution, the mixture A, the mixture B and G6PDH were first mixed in a 96-well plate. Glucokinase was then added to initiate the reaction, and the absorbance at 340 nm was monitored every 5 mins. The activity of glucokinase was represented by the initial generation rate of glucose-6-phosphate, which was calculated by drawing the slope values from the absorbance changing curve at 340 nm vs. the time points.

glucokinase, sequence (P35557 whole entry, species assumed): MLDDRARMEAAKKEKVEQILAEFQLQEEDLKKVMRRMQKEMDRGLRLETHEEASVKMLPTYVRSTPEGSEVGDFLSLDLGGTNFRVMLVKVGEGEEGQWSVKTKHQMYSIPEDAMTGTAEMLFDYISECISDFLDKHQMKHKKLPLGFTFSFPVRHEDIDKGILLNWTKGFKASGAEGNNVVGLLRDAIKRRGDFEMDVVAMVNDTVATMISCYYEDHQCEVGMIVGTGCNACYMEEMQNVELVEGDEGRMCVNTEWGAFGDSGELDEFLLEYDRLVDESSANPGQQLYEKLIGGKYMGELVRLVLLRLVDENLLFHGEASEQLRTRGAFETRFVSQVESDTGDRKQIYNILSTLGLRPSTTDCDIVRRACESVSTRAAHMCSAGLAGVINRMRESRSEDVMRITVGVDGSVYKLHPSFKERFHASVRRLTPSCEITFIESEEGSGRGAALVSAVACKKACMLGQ

Compound	EC50 [nM]
Cc1cnc(Nc2ccc(Oc3ccc(S(C)(=O)=O)nc3)c(CN3CCCC3=O)c2)s1 [Example 13, 1-(2-(6-(methylsulfonyl)pyridin-3-yloxy)-5-(5-methylthiazol-2-ylamino)benzyl)pyrrolidin-2-one]	2000
CN(C)C(=O)c1ccc(Oc2ccc(Nc3ccc(CCC(=O)O)cn3)cc2CN2CCCC2=O)cn1 [Example 78, 3-(6-(4-(6-(dimethylcarbamoyl)pyridin-3-yloxy)-3-((2-oxopyrrolidin-1-yl)methyl)phenylamino)pyridin-3-yl) propanoic acid]	1500
CS(=O)(=O)c1ccc(Oc2ccc(Nc3ccc(C(=O)O)cn3)cc2CN2CCCC2=O)cn1 [Example 6, 6-(4-(6-(methylsulfonyl)pyridin-3-yloxy)-3-((2-oxopyrrolidin-1-yl)methyl)phenylamino) nicotinic acid]	2000
CN(C)C(=O)c1ccc(Oc2ccc(Nc3ccccn3)cc2CN2CCCC2=O)cn1 [Example 65, N,N-dimethyl-5-(2-((2-oxopyrrolidin-1-yl)methyl)-4-(pyridin-2-ylamino)phenoxy)picolinamide]	5000
